pIC50: −log10 of the molar value. Read-outs that look alike come from different tables or passages of the source.
Assays:
FLT3 = molecular target: T1, FLT3 (Homo sapiens, UniProt P36888); assay: FLT3 kinase in vitro inhibitory activity experiment (Caliper mobility shift, conversion rate); assay type: biochemical; conditions: IC50 class, read-out: Enzyme activity FLT3
T1 construct: purchased Carna 08-145
T1 sequence (P36888 27-993): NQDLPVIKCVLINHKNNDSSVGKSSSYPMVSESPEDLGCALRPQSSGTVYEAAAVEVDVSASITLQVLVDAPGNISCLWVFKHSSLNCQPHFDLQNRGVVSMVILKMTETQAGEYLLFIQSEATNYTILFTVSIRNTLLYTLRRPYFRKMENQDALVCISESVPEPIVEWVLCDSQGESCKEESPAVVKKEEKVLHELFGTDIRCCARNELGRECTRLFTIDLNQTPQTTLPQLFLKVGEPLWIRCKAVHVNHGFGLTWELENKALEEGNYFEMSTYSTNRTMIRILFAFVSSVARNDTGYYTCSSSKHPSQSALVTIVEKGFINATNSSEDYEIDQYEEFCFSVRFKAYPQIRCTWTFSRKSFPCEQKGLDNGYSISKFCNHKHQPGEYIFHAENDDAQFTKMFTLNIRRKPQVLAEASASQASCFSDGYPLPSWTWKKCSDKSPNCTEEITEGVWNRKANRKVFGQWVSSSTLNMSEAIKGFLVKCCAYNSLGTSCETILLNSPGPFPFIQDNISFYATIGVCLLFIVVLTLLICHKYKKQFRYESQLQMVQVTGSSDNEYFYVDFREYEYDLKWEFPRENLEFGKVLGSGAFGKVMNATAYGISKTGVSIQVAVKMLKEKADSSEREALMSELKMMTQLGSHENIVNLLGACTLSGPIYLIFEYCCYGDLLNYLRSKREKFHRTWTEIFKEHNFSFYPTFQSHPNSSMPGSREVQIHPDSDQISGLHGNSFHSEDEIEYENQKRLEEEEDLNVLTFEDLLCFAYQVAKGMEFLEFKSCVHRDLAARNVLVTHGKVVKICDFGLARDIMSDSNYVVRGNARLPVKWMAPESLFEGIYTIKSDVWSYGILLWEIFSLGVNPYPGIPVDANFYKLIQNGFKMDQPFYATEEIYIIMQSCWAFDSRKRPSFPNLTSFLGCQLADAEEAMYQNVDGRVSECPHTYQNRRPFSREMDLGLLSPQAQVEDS
Procedure, shortened: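 Tested in single wells as ten 3-fold dilutions of a 1 μM initial stock. Compound and FLT3 stood 10 min at room temperature; ATP with Kinase substrate 2 was then added for 30 min at room temperature and the reaction stopped. Conversion was measured by Caliper mobility shift, and inhibition was normalised to control-well conversion.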

MV4;11 cells = assay: MV4;11 in vitro inhibition of proliferation assay (CellTiter-Glo, 72 hours); assay type: cell-based; conditions: IC50 class, read-out: Inhibitory activity of cell proliferation MV4;11
Procedure, shortened: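 IC50 came from four-parameter fitting of inhibition rates, based on CellTiter-Glo luminescence after 72 hours at 37° C. Each well held 2000 MV4;11 cells grown in IMDM with 10% serum. Compounds formed a nine-point, threefold DMSO series starting at 10 uM, tested in triplicate at 0.3% final DMSO.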

| SMILES | pIC50 (FLT3) | pIC50 (MV4;11 cells; Homo sapiens, MV4-11, 72 h) | pIC50 (MV4;11 cells) |
| --- | --- | --- | --- |
| CCc1nc2c(N)ncc(-c3ccc(N4CCC(N5CCN(C)CC5)CC4)c(OC)c3)c2nc1NCC(C)(C)O [Compound 68] | ≥ 8.00 | 7.00 to 8.00 |  |
| CCc1nc2c(N)ncc(-c3cnn(C(CC)CC)c3)c2nc1N[C@@H]1CC[C@H](O)C1 [Compound 195] | 7.00 to 8.00 | 7.00 to 8.00 |  |
| CCc1nc2c(N)ncc(-c3cnn(-c4ccncn4)c3)c2nc1N[C@@H]1CC[C@H](O)C1 [Compound 179] | ≥ 8.00 | ≥ 8.00 |  |
| CCc1nc2c(N)ncc(-c3cnn(C4C[C@H]5CC[C@@H](C4)N5S(C)(=O)=O)c3)c2nc1N[C@@H]1CC[C@H](O)C1 (some centres unmarked) [Compound 168] | ≥ 8.00 | ≥ 8.00 |  |
| CCc1nc2c(N)ncc(-c3ccc(N4CCN(C5CCN(C)CC5)CC4)c(OC)c3)c2nc1NC1CCOCC1 [Compound 36] | ≥ 8.00 | 7.00 to 8.00 |  |
| CCc1nc2c(N)ncc(-c3ccc(N4CCC(N5CCN(C)CC5)C(C)C4)c(OC)c3)c2nc1NC1CCOCC1 (centres unmarked) [Compound 287, 3-ethyl-8-(3-methoxy-4-(3-methyl-4-(4-methylpiperazine-1-yl)piperidine-1-yl)phenyl)-N2-(tetrahydro-2H-pyran-4-yl)pyridino[3,4-b]pyrazine-2,5-diamine] | ≥ 8.00 | 7.00 to 8.00 |  |
| CCc1nc2c(N)ncc(-c3cnn(C4C[C@H]5CC[C@@H](C4)N5)c3)c2nc1N[C@@H]1CC[C@H](O)C1 (single isomer, unassigned) [Compound 162] | ≥ 8.00 |  | 6.30 to 7.00 |
| CCc1nc2c(N)ncc(-c3cnn(C4C[C@H]5CC[C@@H](C4)N5C)c3)c2nc1N[C@@H]1CC[C@H](O)C1 (single isomer, unassigned) [Compound 165] | ≥ 8.00 |  | ≥ 8.00 |
| CCc1nc2c(N)ncc(-c3cnn(C4CCN(C5CN(C)C5)CC4)c3)c2nc1NC1CCOCC1 [Compound 242] | ≥ 8.00 | 7.00 to 8.00 |  |
| CCc1nc2c(N)ncc(-c3cnn(-c4ncc(F)cn4)c3)c2nc1N[C@@H]1CC[C@H](O)C1 [Compound 341] | ≥ 8.00 | ≥ 8.00 |  |
| CCc1nc2c(N)ncc(-c3ccc(N4CCC(O)CC4)c(OC)c3)c2nc1NC1CCOCC1 [Compound 39] | ≥ 8.00 | 7.00 to 8.00 |  |
| CCc1nc2c(N)ncc(-c3cnn(-c4cncnc4)c3)c2nc1N[C@@H]1CC[C@H](O)C1 [Compound 295] | ≥ 8.00 | ≥ 8.00 |  |
| CCc1nc2c(N)ncc(-c3cnn(C4CCN(C)CC4)c3)c2nc1NC1CCOCC1 [Compound 136] | ≥ 8.00 | 7.00 to 8.00 |  |
| CCc1nc2c(N)ncc(-c3cnn(C4CCCCC4)c3)c2nc1N[C@@H]1CC[C@H](O)C1 [Compound 192] | ≥ 8.00 | ≥ 8.00 |  |
| CCc1nc2c(N)ncc(-c3ccc(N4CCC(N5CCN(CC)CC5)CC4)c(OC)c3)c2nc1NC1CCOCC1 [Compound 315, 3-ethyl-8-(4-(4-(4-ethylpiperazine-1-yl)piperidine-1-yl)-3-methoxyphenyl)-N2-(tetrahydro-2H-pyran-4-yl)pyridino[3,4-b]pyrazine-2,5-diamine] | ≥ 8.00 | 7.00 to 8.00 |  |
| CCc1nc2c(N)ncc(-c3cnn(-c4ccc(C#N)cc4)c3)c2nc1N[C@@H]1CC[C@H](O)C1 [Compound 336] | ≥ 8.00 | ≥ 8.00 |  |
| CCc1nc2c(N)ncc(-c3cnn(C4CCC(C)(O)CC4)c3)c2nc1N[C@@H]1CC[C@H](O)C1 (single isomer, unassigned) [Compound 285] | ≥ 8.00 |  | ≥ 8.00 |
| CCc1nc2c(N)ncc(-c3cnn(C4CCN(C5CCN(CC)CC5)CC4)c3)c2nc1NC1CCOCC1 [Compound 235] | ≥ 8.00 | ≥ 8.00 |  |
| CCc1nc2c(N)ncc(-c3cnn(C4CCNCC4)c3)c2nc1NC1CCOCC1 [Compound 58] | ≥ 8.00 | 7.00 to 8.00 |  |
| CCc1nc2c(N)ncc(-c3ccc(N4CCC5(CCN(C)CC5)CC4)c(OC)c3)c2nc1NC1CCOCC1 [Compound 32] | ≥ 8.00 | 7.00 to 8.00 |  |
| CCc1nc2c(N)ncc(-c3cnn(-c4cnc(C(C)(C)O)nc4)c3)c2nc1NC1CCOCC1 [Compound 349] | ≥ 8.00 | 7.00 to 8.00 |  |
| COc1cc(-c2cnc(N)c3nc(C(C)C)c(NC4CCOCC4)nc23)ccc1N1CCC(N2CCN(C)CC2)CC1 [Compound 27] | ≥ 8.00 | 7.00 to 8.00 |  |

| SMILES | pIC50 (FLT3) | pIC50 (MV4;11 cells; Homo sapiens, MV4-11, 72 h) | pIC50 (MV4;11 cells) |
| --- | --- | --- | --- |
| CCc1nc2c(N)ncc(-c3cnn(-c4ccnc(Cl)c4)c3)c2nc1N[C@@H]1CC[C@H](O)C1 [Compound 345] | ≥ 8.00 | ≥ 8.00 |  |
| CCc1nc2c(N)ncc(-c3cnn(-c4ccc(C(C)(C)O)cc4)c3)c2nc1N[C@@H]1CC[C@H](O)C1 [Compound 333] | ≥ 8.00 | ≥ 8.00 |  |
| CCc1nc2c(N)ncc(-c3ccc(-c4ccc(C5CCN(C)CC5)cc4)c(OC)c3)c2nc1N[C@@H]1CC[C@H](O)C1 [Compound 313] | ≥ 8.00 | 7.00 to 8.00 |  |
| CCc1nc2c(N)ncc(-c3cnn(-c4cnc(C(C)(C)O)nc4)c3)c2nc1N[C@@H]1CC[C@H](O)C1 [Compound 331] | ≥ 8.00 | ≥ 8.00 |  |
| CCc1nc2c(N)ncc(-c3cnn(-c4cnc(C(C)(C)O)nc4)c3)c2nc1N[C@@H]1CC[C@@H](O)C1 [Compound 356] | ≥ 8.00 | 7.00 to 8.00 |  |
| CCc1nc2c(N)ncc(-c3cnn(C4C[C@H]5CC[C@@H](C4)N5)c3)c2nc1N[C@@H]1CC[C@H](O)C1 (single isomer, unassigned) [Compound 163] | ≥ 8.00 |  | 7.00 to 8.00 |
| CCc1nc2c(N)ncc(Br)c2nc1NC1CCOCC1 [Compound 2, 8-Bromo-3-ethyl-N2-(tetrahydro-2H-pyran-4-yl)pyridino[3,4-b]pyrazine-2,5-diamine] | 6.30 to 7.00 | < 6.30 |  |
| CCc1nc2c(N)ncc(-c3cnn(CC4CCN(C5CCN(C)CC5)CC4)c3)c2nc1NC1CCOCC1 [Compound 155] | ≥ 8.00 | 7.00 to 8.00 |  |
| CCc1nc2c(N)ncc(-c3cnn(-c4ccc(C(C)(C)O)c(F)c4)c3)c2nc1N[C@@H]1CC[C@H](O)C1 [Compound 355] | ≥ 8.00 | ≥ 8.00 |  |
| CCc1nc2c(N)ncc(-c3cnn(C4CCN(C5COC5)CC4)c3)c2nc1N[C@@H]1CC[C@H](O)C1 [Compound 209] | ≥ 8.00 | ≥ 8.00 |  |
| CCc1nc2c(N)ncc(-c3cnn(C4CCN(C(C)C)CC4)c3)c2nc1N[C@@H]1CCC[C@H](O)C1 [Compound 260] | ≥ 8.00 | ≥ 8.00 |  |
| CCc1nc2c(N)ncc(-c3ccc(N4CCC(N5CCN(C)CC5)CC4)c(C)c3)c2nc1NC1CCOCC1 [Compound 13] | ≥ 8.00 | 7.00 to 8.00 |  |
| CCc1nc2c(N)ncc(-c3cnn(-c4ccc(OC5CCN(C)CC5)cc4)c3)c2nc1N[C@@H]1CC[C@H](O)C1 [Compound 292, (1S, 3R)-3-((5-amino-3-ethyl-8-(1-(4-((1-methylpiperidin-4-yl)oxy)phenyl)-1H-pyrazol-4-yl)pyridino[3,4-b]pyrazin-2-yl)amino)cyclopentan-1-ol] | < 6.30 | 6.30 to 7.00 |  |
| CCc1nc2c(N)ncc(-c3cnn(-c4ccnc(N5CCCC5)c4)c3)c2nc1N[C@@H]1CC[C@H](O)C1 [Compound 310] | ≥ 8.00 | 7.00 to 8.00 |  |
| CCc1nc2c(N)ncc(-c3cnn(-c4cnc(C#N)nc4)c3)c2nc1N[C@@H]1CC[C@H](O)C1 [Compound 338] | ≥ 8.00 | ≥ 8.00 |  |
| CCc1nc2c(N)ncc(-c3cnn(C4CCN(C5CCN(C)CC5)CC4)c3)c2nc1N[C@H]1CCOC1 [Compound 248] | ≥ 8.00 | 7.00 to 8.00 |  |
| CCc1nc2c(N)ncc(-c3ccc(N4CCC(N(C)CCN(C)C)CC4)c(OC)c3)c2nc1NC1CCOCC1 [Compound 48] | ≥ 8.00 | 7.00 to 8.00 |  |
| CCc1nc2c(N)ncc(-c3cnn(-c4cc(C)ncn4)c3)c2nc1N[C@@H]1CC[C@H](O)C1 [Compound 304] | ≥ 8.00 | ≥ 8.00 |  |
| CCc1nc2c(N)ncc(-c3cnn(-c4ccc(F)cc4F)c3)c2nc1N[C@@H]1CC[C@H](O)C1 [Compound 178] | ≥ 8.00 | ≥ 8.00 |  |
| CCc1nc2c(N)ncc(-c3cnn(C4CCN(C(C)C)CC4)c3)c2nc1N[C@H]1CCOC1 [Compound 225] | ≥ 8.00 | ≥ 8.00 |  |
| CCc1nc2c(N)ncc(-c3cnn(C4CCN(C5CCN(CCO)CC5)CC4)c3)c2nc1NC1CCOCC1 [Compound 239] | ≥ 8.00 | 7.00 to 8.00 |  |

— patent publication US12673947B2 (Cytosinlab Therapeutics Co., Ltd., priority 2020, dated 2026)
